Results from US5219825A, “Synergistic herbicidal compositions comprising herbicides which generate toxic oxygen radicals and chelating agents which inhibit their detoxification” (Yeda Research and Development Co., Ltd., priority 1986, dated 1993).

How the values were obtained:
weed species = details: cited from earlier work
[1] = system: isolated Asparagus sprengeri cells; assay: Chlorophyll loss in isolated cells (synergism at the cellular level); type: cell-based; details: for % of control chlorophyll: low light 305 μEin m^-2 s^-1
Description: Isolated cells offer an excellent rapid method of screening for phytotoxicity using a large number of potential chelators and synergists. Asparagus sprengeri cells were isolated from cladophylls of field grown plants using the procedure of Colman et al. (Can. J. Botany 57 1505, (1979)) except that the isolation, washing and culture buffer was 50 mM HEPES brought to pH 7.2 with KOH. The cladophylls were surface sterilized using 80% aqueous ethanol. After three centrifugations to remove broken cells, the cells were diluted to 10% packed volume and 0.75 ml were placed in each well of cluster dishes. The potential synergists in this example 0.02% w/v final concentration diethyldithiocarbamate (DDC) and an oxime of 4-octyl-2-acetyl-phenol (U.S. Pat. No. 4,215,219) which complex primarily with copper and di-2-ethylhexyl-phosphoric acid which complexes primarily with zinc (Flett, Chem and Ind. 17 706, (1977)) was placed with the herbicides atrazine and paraquat. All additions were made at 100 fold the final concentration of herbicide and synergist. Paraquat was dissolved in water and atrazine in methanol. The cluster dishes were incubated on a reciprocal shaker with a clear plastic bottom and illuminated from top and bottom with fluorescent lights emitting 135 μEin.m^-2 s^-1 (top) and 170 μEin.m^-2 s^-1 (bottom). The cells were kept mixed by the shaker and incubation was at room temperature. Incubation was stopped when there was visually obvious loss of chlorophyll due to treatments in a given experiment. The cells were removed to glass centrifugation tubes, centrifuged and the supernatant removed. One ml of 80% aqueous acetone was added to extract chlorophyll, the debris were sedimented by centrifugation and chlorophyll was spectrophotometrically determined at 645 and 663 nm according to Arnon (Plant Physiology 24 1, (1949)). […] In another experiment, a larger variety of chelating synergists and oxidant generating herbicides were used, and light was given at a much higher intensity 1000 μEin m^-2 s^-1 to better approach natural sunlight which is at 1200-1500 […].
Paraquat toxicity was measured 24 h after treatment and atrazine toxicity was measured 40 h after treatment.
Paraquat toxicity was measured 14 h after treatment.

[2] = system: Conyza bonariensis low herbicide requiring biotype; assay: Whole plant spray, visual rating; type: in vivo
Excerpt: (§1) Seeds of Conyza bonariensis were germinated and plants cultivated as outlined in Example 1. Other species were germinated in a similar mixture and treated at 10 days.
(§2) The commercial fungicides, maneb [manganese ethylene-bis(dithiocarbamate) (polymeric)] and zineb [zinc ethylene-bis (dithiocarbamate) (polymeric)] were used, they have similar structures and effects as DDC, but are blocked and act as chelate controls […] to clarify that a synergism would be due to the chelating effect of diethyldithiocarbamate. […] They could not chelate copper due to their being blocked.
(§3) ^a visual ratings (scored 1 day after treatment): 0 no damage to
(§4) slight burn; 1 moderate burn (may regenerate); 2 severe burn (will die)
(§5) Similarly, both the paraquat resistant and sensitive biotypes of Conyza bonariensis were treated with two other oxidant generating herbicides. Atrazine (of the triazine group) is the most widely used oxidant generating herbicides in agriculture. We used various dilutions of a commercial wettable powder (Atranex 50WP-Agan Chemicals) to which we added 0.5% DDC. The effects were scored 24 h later. […] We also tested to see whether acifluorfen, a nitro diphenyl ether herbicide would be synergized. It is generally agreed that light and oxygen are required for its action via oxidant damage. We sprayed a commercial formulation of acifluorfen (Blazer, Rohm and Haas) to which were added 0.25% Tween-20 detergent, with and without DDC. The effects were scored 24 h later.

[3] = system: Conyza bonariensis high herbicide requiring biotype; assay: Whole plant spray, visual rating; type: in vivo
Excerpt: as §1, §2, §3, §4, §5

[4] = system: Conyza bonariensis paraquat tolerant (high herbicide requiring) biotype; assay: Malonyldialdehyde in tissue (lipoxidation, membrane damage) after spraying; type: in vivo; details: atrazine 0 μM; DDC 0.5% alone; high herbicide requiring biotype; untreated control = 100
Description: (§6) Seeds of two biotypes of Conyza bonariensis (L.) Cronq. (synonym C. linifolia) were obtained from Egypt. The paraquat sensitive biotype was gathered near Alexendria and seeds of the resistant type from the Tahrir irrigation district. They were obtained from Dr. Martin Parham in England. Seeds were germinated in a growth room with a 14 h light period at 25° C. Plants were transferred out of doors 24 h before being sprayed. The phytotoxicity of three herbicides representative of the three different modes of generating active oxygen species known at present. Commercial paraquat (Gramoxone-ICI Plant Protection Ltd) was formulated with 0.1% (w/v) Tween-20 (a non-ionic surfactant) for spraying. The response to the range of 10^-5 M to 10^-2 M paraquat was measured by spraying two plants per concentration to run-off in the early morning. All plants were exposed to sunlight for at least 13 h (1300 μE.m^-2s^-1 photosynthetically active radiation (PAR) at mid day). Commercial acifluorfen (Blazer, Rohm, and Hass, Philadelphia, Pa., USA) to which was added 0.25% Tween-20 was sprayed to run-off. The response to spraying was measured as with paraquat 24 h after spraying. Commercial atrazine (Atranex 50 WP-Agan) was sprayed at various rates in 0.25% Tween 20 to run off. Fully expanded, 8 to 10 cm long leaves from plants in the rosette stage were used in all experiments. Phytotoxicity of acifluorfen and paraquat was measured as CO2 fixation 24 h later as follows: Detached leaves were placed on wet filter paper in a sealed chamber with 5μ Ci^14 C-sodium bicarbonate. Tartaric acid was remotely dripped on the sodium bicarbonate to release ^14 CO2. Leaves were illuminated with […] (PAR) for 30 min. Eighty percent acetone was added and the mixture put under strong light to photobleach pigments and evaporate the acetone. A scintillation mixture of Lumax:xylene (45:55) was added to the leaves and remaining water. The samples were counted and the data expressed as DPM.cm^-2. Area was measured with a planimeter from photocopies of the leaves made prior to photosynthesis measurements. Phytotoxicity of atrazine was measured as the elevated level of malonyldialdehyde in the tissue. Malonyldialdehyde (as measured with thiobarbituric acid according to Dodge and Gillham (Asp. Appl. Biol 11 97 (1986)) is a measurement of lipoxidation of unsaturated fatty acids, and provides an excellent estimation of damage by active oxygen species.
(§7) ^b membrane damage was measured as malonyldialdehyde release
as §5

[5] = system: Conyza bonariensis paraquat sensitive (low herbicide requiring) biotype; assay: as above; type: in vivo; details: atrazine 0 μM; DDC 0.5% alone; low herbicide requiring biotype; untreated control = 100
Description: as §6, §7, §5

Structure (SMILES) | rate at which species are killed (weed species; Bromis inermis, Amaranthus retroflexus and wheat) [kg/ha] | rate required for good control (weed species; Digitaria, Chenopodium album, Sinapis arvensis and Galium aparine) [kg/ha] | chlorophyll remaining - % of control ([1]; isolated cladophyll cells, 840 min) | chlorophyll remaining - % of control ([1]; paraquat 10 μM, Tetraethylene-pentamine 0.025% where added, 14 h, 1000 μEin m^-2 s^-1) | chlorophyll remaining - % of control ([1]; paraquat 20 μM, 4-Octyl-2-acetyl-phenol oxime 0.125% where added, 14 h, 1000 μEin m^-2 s^-1) | chlorophyll remaining - % of control ([1]; paraquat 20 μM, Pyridine-2,6-dicarboxylic acid 0.005% where added, 14 h, 1000 μEin m^-2 s^-1) | chlorophyll remaining - % of control ([1]; paraquat 20 μM, di-2-ethyl-hexyl-phosphoric acid 0.001% where added, 14 h, 1000 μEin m^-2 s^-1) | % of control chlorophyll ([1]; paraquat 10^-6, DDC 0.02% where added, 24 h, 1 µM) | visual rating ([2]; paraquat 30 μM spray to run-off, DDC 0.75% W/V where added, scored 1 day after treatment) | effect of paraquat spray ([3]; 1 mM spray of paraquat, paraquat resistant biotype) | visual rating ([3]; paraquat 1000 μM spray to run-off, DDC 0.75% W/V where added, high herbicide requiring biotype, scored 1 day after treatment) | % of control chlorophyll ([1]; no herbicide, DDC 0.02% alone, atrazine series, 40 h) | % of control chlorophyll ([1]; no herbicide, DDC 0.02% alone, paraquat series, 24 h) | membrane damage (malonyldialdehyde release) [4] | membrane damage (malonyldialdehyde release) [5] | visual ratings ([2]; atrazine 0 μM, DDC 0.5% alone, scored one day after treatment) | visual ratings ([3]; atrazine 0 μM, DDC 0.5% alone, high herbicide requiring biotype, scored one day after treatment)
C[n+]1ccc(-c2cc[n+](C)cc2)cc1 [paraquat, 1,1'-dimethyl-4-4'bipyridium ion] | 0.01 | 3 | 56 % of control | 89 % of control | 74 % of control | 9 % of control | 72 % of control | 107 % of control | 1.8 | hardly affected | 0.9 |  |  |  |  |  | 
CCN(CC)C(=S)[S-].[Na+] [DDC, Sodium diethyldithiocarbamate] |  |  |  |  |  |  |  |  |  |  |  | 120 % of control | 116 % of control | 112 | 125 | 1.6 | 0.6
